Here are results for 3 molecules from paper PMC12670396, “Crizotinib- or Ceritinib-Conjugated Platinum(IV) Prodrugs As Potent Multiaction Agents Inducing Antiproliferative Effects in 2D and 3D Cancer Cell Models” (Journal of Medicinal Chemistry, 2025).

In one test the test system is U87-MG. Kind of test: MTT cytotoxic/antiproliferative activity, 72 h. In kind it is cell-based, human. The settings on record: for IC50: MTT, 72 h. How it is done:
(§1) A panel of six cancer cell lines was used to evaluate the cytotoxic potential of the investigated compounds.
(§2) Cytotoxicity in hepatocyte-like cells (HLC). STEMdiff Hepatocyte Kit was used to generate HLC from human pluripotent stem cells. Cytotoxicity of several of the tested compounds in HLC was evaluated using the sulphorhodamine B assay.

In the next test the test system is NCI-H2228 spheroids. Briefly: Cytotoxicity in 3D spheroids, CellTiter-Glo 3D. The settings on record: NCI-H2228 3D spheroids, 96 h. In kind it is cell-based, human. How it is done: (§3) In the 3D structure, the gradients of gases, nutrients, and therapeutics play a role in the final cytotoxicity of a compound.
(§4) A549 and NCI-H2228 cells were seeded in ultralow attachment, U-shape plates (Corning) at a density of 800 cells/well in the tumorsphere medium consisting of DMEM/F12 medium (Sigma), fibroblast growth factor (20 ng/mL; Sigma), epidermal growth factor 2 (10 ng mL^–1; Sigma), B27 supplement (1×; Gibco), bovine serum albumin, bovine serum albumin (BSA) (1.5 mg mL^–1; Sigma). […] CellTiter-Glo 3D viability assay was used for the experiment evaluation following the manufacturer’s instructions. The bioluminescence signal, proportional to the number of living cells, was measured using the luminescence reader SPARK, and IC50 values were calculated.
In general terms: Cellular ATP, detected with luciferase, serves as a proxy for viable cell number.

The subject of the next test is A549 spheroids. Briefly: Cytotoxicity in 3D spheroids, CellTiter-Glo 3D. The settings on record: A549 3D spheroids, 96 h. It is filed as cell-based, human. How it is done:
as §3, §4

The subject of a further test is MDA-MB-231. Kind of test: MTT cytotoxic/antiproliferative activity, 72 h. The settings on record: for IC50: MDA-MB-231, MTT, 72 h. In kind it is cell-based, human.
Another test deals with IMR-90. Briefly: MTT cytotoxicity in noncancerous cells, 72 h. In kind it is cell-based, human. The settings on record: IMR-90, MTT. How it is done: (§5) Growth inhibition activity in cancer cell lines was compared with the activity to inhibit the proliferation of normal (noncancerous) cells, namely MRC-5, IMR-90, hTERT-HPNE, and MCF10A cells. Selectivity indexes (SI) were calculated as (IC50 in noncancerous cells)/(average IC50 in cancer cells). […] We further assessed the toxicity of several of the compounds in hepatocyte-like cells (HLC) generated from human pluripotent cells.
as §2

The next test deals with MRC-5. Kind of test: MTT cytotoxicity in noncancerous cells, 72 h. It is filed as cell-based, human. The settings on record: MRC-5, MTT. How it is done:
as §5, §2

The next test relates to MCF10A. Kind of test: MTT cytotoxicity in noncancerous cells, 72 h. In kind it is cell-based, human. How it is done:
as §5, §2

The subject of another test is hTERT-HPNE. Briefly: MTT cytotoxicity in noncancerous cells, 72 h. In kind it is cell-based, human. How it is done:
as §5, §2

In another test the test system is NCI-H2228 cells. Briefly: Phosphorylation of H2AX (γH2AX foci, confocal microscopy). It is filed as cell-based, human. To be noted: NCI-H2228, 3xIC50, 24 h. The text has this:
(§6) The cytotoxicity assay was also employed to determine whether DNA damage might be involved in the mechanism of action of the tested compounds. The Chinese hamster ovary MMC2 cell line harbors the ERCC3/XPB mutation, which renders it deficient in nucleotide excision repair (NER), whereas the parent line CHOK1 is proficient in this repair process. Thus, the MMC2 line is often more sensitive to agents causing DNA damage, especially NER-reparable DNA damage, than CHOK1. […] Phosphorylation of H2AX is a commonly used marker of DNA damage.
The nuclei were counter-stained with DAPI. The samples were mounted with ProLong Diamond antifade mountant, and the images were recorded on a Leica SP8 confocal microscope.

Another test has as its system MMC2. Kind of test: MTT cytotoxicity in NER-deficient cells, 72 h. The settings on record: for Index F: IC50(CHOK1)/IC50(MMC2); for IC50: MMC2 (NER deficient), MTT, 72 h. It is filed as cell-based, Chinese hamster. The text has this: The cytotoxicity assay was also employed to determine whether DNA damage might be involved in the mechanism of action of the tested compounds. The Chinese hamster ovary MMC2 cell line harbors the ERCC3/XPB mutation, which renders it deficient in nucleotide excision repair (NER), whereas the parent line CHOK1 is proficient in this repair process. Thus, the MMC2 line is often more sensitive to agents causing DNA damage, especially NER-reparable DNA damage, than CHOK1. […] Phosphorylation of H2AX is a commonly used marker of DNA damage. […]

The subject of a further test is A549 cells. Kind of test: Scratch test (cell migration). In kind it is cell-based, human. The settings on record: A549, IC50 concentrations, 48 h. How it is done:
First, we employed the scratch test. The ability to slow the cell closing the open area was observable for all tested compounds to a similar extent (Figure S38). Whereas the open area was almost completely closed after 48 h in nontreated cells, it remained almost fully clear of cells in the treated samples.
A549 cells were seeded in 24-well plates with inserts (Ibidi) at a density of 2 × 10^4 cells/chamber and incubated overnight. The inserts were then withdrawn, and fresh medium containing the investigated compounds was added. The image of the cell-free region was recorded at the time of compound addition and then after 48 h. The cell-free area was evaluated with Fiji software.

The test system of the next test is A549. Kind of test: MTT cytotoxic/antiproliferative activity, 72 h. It is filed as cell-based, human. The settings on record: for IC50: A549, MTT, 72 h.
The test system of test [1] is normal (noncancerous) cells MRC-5, IMR-90, hTERT-HPNE, MCF10A. Briefly: MTT, noncancerous cell lines (average, selectivity index). In kind it is cell-based, human. The settings on record: for SI, selectivity index: IC50(normal cells)/averageIC50(cancer cells); for IC50: average over MRC-5, IMR-90, hTERT-HPNE, MCF10A, read-out: av norm (average IC50 in noncancerous cells). How it is done: Growth inhibition activity in cancer cell lines was compared with the activity to inhibit the proliferation of normal (noncancerous) cells, namely MRC-5, IMR-90, hTERT-HPNE, and MCF10A cells. Selectivity indexes (SI) were calculated as (IC50 in noncancerous cells)/(average IC50 in cancer cells). […] We further assessed the toxicity of several of the compounds in hepatocyte-like cells (HLC) generated from human pluripotent cells. […]

For another test, the system named is CHOK1. Briefly: MTT cytotoxicity in NER-proficient cells, 72 h. In kind it is cell-based, Chinese hamster.
Excerpt: as §6, §2

Test [2] concerns panel of six cancer cell lines. Briefly: MTT, panel of six cancer cell lines (average, ranges). It is filed as cell-based, human. To be noted: average over six cancer cell lines; read-out: av cancer (average IC50 in cancer cells). How it is done: as §1, §2
The next test deals with CT26 cells. Kind of test: Externalization of calreticulin (flow cytometry). It is filed as cell-based, murine. To be noted: IC50 concentrations, 16 h. How it is done:
Cells with compromised cell membranes (PI-positive) were excluded from the analysis.
CT26 cells were seeded in 6-well plates at a density of 2.5 × 10^5 cells/well and grown overnight. […] PI was added before the flow cytometry analysis with a BD FACS Verse flow cytometer. Then 3 × 10^4 cells were analyzed following the exclusion of cell aggregates. Data was analyzed with FSC Express 7 software (DeNovo software, Glendale, CA).

The next test deals with RD. Briefly: MTT cytotoxic/antiproliferative activity, 72 h. The settings on record: for IC50: MTT, 72 h. It is filed as cell-based, human.
A further test concerns HCT116. Briefly: MTT cytotoxic/antiproliferative activity, 72 h. In kind it is cell-based, human. The settings on record: for IC50: HCT116, MTT, 72 h.
A further test has as its system CT26 cell line. Kind of test: MTT cytotoxic/antiproliferative activity, 72 h. In kind it is cell-based, murine.

For `N.N.[Cl][Pt][Cl]` [cisPt, cisplatin, reference compound], the half-maximal inhibitory concentration (IC50) (commonly the concentration at which inhibition is half-maximal) in the test on U87-MG was 3000 ± 200 nM; in the test on NCI-H2228 spheroids it was 2100 ± 900 nM; with A549 spheroids, 19000 ± 3000 nM; in the test on MDA-MB-231 it was 27000 ± 4000 nM; in the test on IMR-90, 9600 ± 800 nM; in the test on MRC-5 it was 10000 ± 2000 nM. Also, the IC50 is 8000 ± 900 nM with MCF10A; 12000 ± 2000 nM with hTERT-HPNE; 2600 ± 600 nM in the test with MMC2; 4300 ± 200 nM with A549; 9900 nM in test [1]; 24000 ± 2000 nM in the test on CHOK1. For the same molecule, the IC50 in test [2] was found to be 8800 nM; in the test with RD it was 7300 ± 200 nM; with HCT116, 8800 ± 500 nM; in the test with CT26 cell line it was 6000 ± 1000 nM. Also, the “γH2AX foci (DNA damage marker)” value with NCI-H2228 cells was “detected γH2AX foci”. The figures for the “Index F” value in the test with MMC2 and in the test with MMC2 (listed as cisplatin) were 9.23(***) and “approximately 9”, respectively. For the same molecule, the “antimigratory effect (closing of open area)” value (“antimigratory effect” below) in the test on A549 cells was “reduced the area filling only partially”. The “SI, selectivity index” value in test [1] is recorded as 1.1. The externalization of calreticulin entry in the test on CT26 cells is given as “weakest”.

`CC(Oc1cc(-c2cnn(C3CCN(C(=O)[O][Pt]([Cl])([Cl])[O]C(=O)CCCc4ccccc4)CC3)c2)cnc1N)c1c(Cl)ccc(F)c1Cl.N.N` (stereo not shown) [compound 3, ctc-[Pt(NH3)2(crizotinib)(PhB)Cl2]]: the IC50 in the test with U87-MG came to 440 ± 50 nM; with NCI-H2228 spheroids it was 410 ± 70 nM; in the test with A549 spheroids it was 980 ± 50 nM; in the test on MDA-MB-231, 500 ± 70 nM; with IMR-90, 2300 ± 600 nM; in the test with MRC-5 it was 1500 ± 600 nM. In addition, the 50% inhibitory concentration (IC50) in the test with MCF10A was 2600 ± 400 nM; with hTERT-HPNE it was 2200 ± 400 nM; in the test on MMC2, 230 ± 80 nM; in the test with A549, 480 ± 60 nM; in test [1], 2200 nM; with CHOK1, 630 ± 50 nM. In addition, the IC50 came out at 500 nM in test [2], 540 ± 70 nM in the test with RD, 570 ± 90 nM with HCT116 and 800 ± 200 nM in the test with CT26 cell line. For the same molecule, the “γH2AX foci (DNA damage marker)” value in the test on NCI-H2228 cells is “detected γH2AX foci”. Also, in the test on A549 cells, the “antimigratory effect” value is “antimigratory potential comparable to that of crizotinib and ceritinib”. The externalization of calreticulin entry with CT26 cells was “externalization of calreticulin was apparent”.

For `Cc1cc(Nc2ncc(Cl)c(Nc3ccccc3S(=O)(=O)C(C)C)n2)c(OC(C)C)cc1C1CCN(C(=O)[O][Pt]([Cl])([Cl])[O]C(=O)CCCc2ccccc2)CC1.N.N` [compound 7, ctc-[Pt(NH3)2(ceritinib)(PhB)Cl2]], the “IC50(MIX)/IC50(complex)” value in the test on U87-MG (MIX3/3 or MIX7/7) was 2.4; in the test with MDA-MB-231 (MDA-MB-231, MIX3/3 or MIX7/7) it was 4.1; with A549 (A549, MIX3/3 or MIX7/7), 3.9; in the test with RD (MIX3/3 or MIX7/7) it was 1.7; in the test on HCT116 (HCT116, MIX3/3 or MIX7/7), 3.1. Also, the IC50 in the test with U87-MG is 260 ± 90 nM; in the test with NCI-H2228 spheroids it was 110 ± 30 nM; with A549 spheroids it was 430 ± 70 nM; in the test on MDA-MB-231 it was 220 ± 80 nM; in the test with IMR-90 it was 1100 ± 300 nM; with MRC-5 it was 1200 ± 400 nM. Moreover, the IC50 with MCF10A turned out to be 900 ± 200 nM; in the test with hTERT-HPNE, 2000 ± 300 nM; with MMC2, 100 ± 30 nM; with A549 it was 230 ± 80 nM; in [1], 1300 nM; with CHOK1, 460 ± 80 nM. In addition, the IC50 in [2] was 220 nM; with RD it was 350 ± 30 nM; in the test on HCT116, 190 ± 60 nM; with CT26 cell line, 270 ± 70 nM. The “γH2AX foci (DNA damage marker)” value in the test on NCI-H2228 cells is given as “detected γH2AX foci”. Besides, the “Index F” value with MMC2 is recorded as 4.60(**). Also, in the test on A549 cells, the “antimigratory effect” value was “antimigratory potential comparable to that of crizotinib and ceritinib”. The “SI, selectivity index” value in test [1] is listed as 5.9. In the test with CT26 cells, the externalization of calreticulin result is “externalization of calreticulin was apparent”.
